Test results reported in the supplement of paper PMC11208160.

Experiment: recombinant barcode read abundance after kanamycin selection (control-corrected) (log10(CPM+1)); higher = more efficient recombination; sequences stand for … in AGTGCAGAGAAAATCGGCCAGTTTTCTCTGCCTGCAGTCCGCATGCCGT…ATTTATGCAGCGGACTGCCTTTCTCCCAAAGTGATAAACCGGACAGTATCATGGACCGGTTTTCCCGGTAATCCGTATTTGCAAGGTTGGTTTCACT; site = the 11-nt target
Protocol: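 Same pooled E. coli target screen (IS621 bridge recombinase, kanamycin selection, control-corrected CPM, mean of 2 biological replicates). Here the two core-binding nucleotides of the LTG and RTG of the bridge RNA target-binding loop are mutated. Target and donor CT cores are held constant, and the other 9 guide positions match the target. The target is read from the library oligo sequence. Molecule = full bridge RNA written as DNA: nt 1-80 from the library oligo, rest WT scaffold.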

| Sequence | recombinant barcode read abundance (log10) |
| --- | --- |
| AGGCGGGCTTGGGTTCTAACCTGTTGCGGCA [AGGCGGGCTCC_LTGcore_CT_RTGcore_TG] (site AGGCGGGCTCC) (LTG core: CT, RTG core: TG) | 0.0958 |
| GGACACCGGTGGGTTCTAACCTGTTGCCTCC [GGACACCCTAG_LTGcore_GG_RTGcore_GG] (site GGACACCCTAG) (LTG core: GG, RTG core: GG) | 0.0801 |
| TAAGAATCTTGGGTTCTAACCTGTTGCCTTC [TAAGAATCTAG_LTGcore_CT_RTGcore_GA] (site TAAGAATCTAG) (LTG core: CT, RTG core: GA) | 0.243 |
| GGGCGTGGATGGGTTCTAACCTGTTGCCTTC [GGGCGTGCTAG_LTGcore_GA_RTGcore_GA] (site GGGCGTGCTAG) (LTG core: GA, RTG core: GA) | 0.0142 |
| GCGCGACCTTGGGTTCTAACCTGTTGCTTTT [GCGCGACCTAA_LTGcore_CT_RTGcore_AA] (site GCGCGACCTAA) (LTG core: CT, RTG core: AA) | 0.0792 |
| GCGCGACTCTGGGTTCTAACCTGTTGCTTAG [GCGCGACCTAA_LTGcore_TC_RTGcore_CT] (site GCGCGACCTAA) (LTG core: TC, RTG core: CT) | 0 |
| CGGTCCCCTTGGGTTCTAACCTGTTGCCAAT [CGGTCCCCTTG_LTGcore_CT_RTGcore_AT] (site CGGTCCCCTTG) (LTG core: CT, RTG core: AT) | 0.133 |
| GGACACCCTTGGGTTCTAACCTGTTGCCTTA [GGACACCCTAG_LTGcore_CT_RTGcore_TA] (site GGACACCCTAG) (LTG core: CT, RTG core: TA) | 1.36 |
| TAGAGGGGCTGGGTTCTAACCTGTTGCGGGC [TAGAGGGCTCC_LTGcore_GC_RTGcore_GC] (site TAGAGGGCTCC) (LTG core: GC, RTG core: GC) | 0.0588 |
| AGGCGGTCGTGGGTTCTAACCTGTTGCTTCG [AGGCGGTCTAA_LTGcore_CG_RTGcore_CG] (site AGGCGGTCTAA) (LTG core: CG, RTG core: CG) | 0.228 |
| GCGGGACTTTGGGTTCTAACCTGTTGCCTAG [GCGGGACCTAG_LTGcore_TT_RTGcore_CT] (site GCGGGACCTAG) (LTG core: TT, RTG core: CT) | 0.13 |
| AGTCTTACTTGGGTTCTAACCTGTTGCCAGT [AGTCTTACTTG_LTGcore_CT_RTGcore_AC] (site AGTCTTACTTG) (LTG core: CT, RTG core: AC) | 0.0396 |
| GGGCGGAGTTGGGTTCTAACCTGTTGCGGAG [GGGCGGACTCC_LTGcore_GT_RTGcore_CT] (site GGGCGGACTCC) (LTG core: GT, RTG core: CT) | 0.389 |
| GGGCGTGTCTGGGTTCTAACCTGTTGCCTAG [GGGCGTGCTAG_LTGcore_TC_RTGcore_CT] (site GGGCGTGCTAG) (LTG core: TC, RTG core: CT) | 0.241 |
| TAAGAATTTTGGGTTCTAACCTGTTGCCTAA [TAAGAATCTAG_LTGcore_TT_RTGcore_TT] (site TAAGAATCTAG) (LTG core: TT, RTG core: TT) | 0.156 |
| AGGCGGTCTTGGGTTCTAACCTGTTGCTTGC [AGGCGGTCTAA_LTGcore_CT_RTGcore_GC] (site AGGCGGTCTAA) (LTG core: CT, RTG core: GC) | 0.784 |
| GGGCGGACATGGGTTCTAACCTGTTGCGGAG [GGGCGGACTCC_LTGcore_CA_RTGcore_CT] (site GGGCGGACTCC) (LTG core: CA, RTG core: CT) | 2.27 |
| ACGGGACGGTGGGTTCTAACCTGTTGCAGAG [ACGGGACCTCT_LTGcore_GG_RTGcore_CT] (site ACGGGACCTCT) (LTG core: GG, RTG core: CT) | 0.14 |
| GGACACCTATGGGTTCTAACCTGTTGCCTAG [GGACACCCTAG_LTGcore_TA_RTGcore_CT] (site GGACACCCTAG) (LTG core: TA, RTG core: CT) | 0.094 |
| AGGCGGGCTTGGGTTCTAACCTGTTGCGGTA [AGGCGGGCTCC_LTGcore_CT_RTGcore_TA] (site AGGCGGGCTCC) (LTG core: CT, RTG core: TA) | 0.138 |
| GAGCCCACTTGGGTTCTAACCTGTTGCCTGA [GAGCCCACTAG_LTGcore_CT_RTGcore_TC] (site GAGCCCACTAG) (LTG core: CT, RTG core: TC) | 0.207 |
| TGTATTCCGTGGGTTCTAACCTGTTGCCTAG [TGTATTCCTAG_LTGcore_CG_RTGcore_CT] (site TGTATTCCTAG) (LTG core: CG, RTG core: CT) | 0.356 |

| Sequence | recombinant barcode read abundance (log10) |
| --- | --- |
| GAGCCCAGCTGGGTTCTAACCTGTTGCCTAG [GAGCCCACTAG_LTGcore_GC_RTGcore_CT] (site GAGCCCACTAG) (LTG core: GC, RTG core: CT) | 0.266 |
| GGGCGGAAATGGGTTCTAACCTGTTGCGGAG [GGGCGGACTCC_LTGcore_AA_RTGcore_CT] (site GGGCGGACTCC) (LTG core: AA, RTG core: CT) | 0.131 |
| GAGCCCATGTGGGTTCTAACCTGTTGCCTCA [GAGCCCACTAG_LTGcore_TG_RTGcore_TG] (site GAGCCCACTAG) (LTG core: TG, RTG core: TG) | 0.995 |
| TGATACCCTTGGGTTCTAACCTGTTGCGTGT [TGATACCCTAC_LTGcore_CT_RTGcore_AC] (site TGATACCCTAC) (LTG core: CT, RTG core: AC) | 0.0827 |
| GAGGCCTCTTGGGTTCTAACCTGTTGCCATG [GAGGCCTCTTG_LTGcore_CT_RTGcore_CA] (site GAGGCCTCTTG) (LTG core: CT, RTG core: CA) | 0.0789 |
| AGGCCTCCATGGGTTCTAACCTGTTGCCTAG [AGGCCTCCTAG_LTGcore_CA_RTGcore_CT] (site AGGCCTCCTAG) (LTG core: CA, RTG core: CT) | 0.44 |
| TAAGAATAATGGGTTCTAACCTGTTGCCTAG [TAAGAATCTAG_LTGcore_AA_RTGcore_CT] (site TAAGAATCTAG) (LTG core: AA, RTG core: CT) | 0.232 |
| GCGCGACCTTGGGTTCTAACCTGTTGCTTAA [GCGCGACCTAA_LTGcore_CT_RTGcore_TT] (site GCGCGACCTAA) (LTG core: CT, RTG core: TT) | 0.166 |
| TCGCGACCTTGGGTTCTAACCTGTTGCCGCC [TCGCGACCTCG_LTGcore_CT_RTGcore_GG] (site TCGCGACCTCG) (LTG core: CT, RTG core: GG) | 0.0891 |
| AAACATGCTTGGGTTCTAACCTGTTGCCTGT [AAACATGCTAG_LTGcore_CT_RTGcore_AC] (site AAACATGCTAG) (LTG core: CT, RTG core: AC) | 1.55 |
| GAGTCCACGTGGGTTCTAACCTGTTGCGTAG [GAGTCCACTAC_LTGcore_CG_RTGcore_CT] (site GAGTCCACTAC) (LTG core: CG, RTG core: CT) | 0.114 |
| AGTCTTAGTTGGGTTCTAACCTGTTGCCAAC [AGTCTTACTTG_LTGcore_GT_RTGcore_GT] (site AGTCTTACTTG) (LTG core: GT, RTG core: GT) | 0 |
| AGGCGGGGATGGGTTCTAACCTGTTGCGGAG [AGGCGGGCTCC_LTGcore_GA_RTGcore_CT] (site AGGCGGGCTCC) (LTG core: GA, RTG core: CT) | 0.555 |
| GGGCGTGATTGGGTTCTAACCTGTTGCCTAT [GGGCGTGCTAG_LTGcore_AT_RTGcore_AT] (site GGGCGTGCTAG) (LTG core: AT, RTG core: AT) | 0.0806 |
| CGGTCCCCTTGGGTTCTAACCTGTTGCCAAC [CGGTCCCCTTG_LTGcore_CT_RTGcore_GT] (site CGGTCCCCTTG) (LTG core: CT, RTG core: GT) | 0.0684 |
| GAGTCCTCCTGGGTTCTAACCTGTTGCCTGG [GAGTCCTCTAG_LTGcore_CC_RTGcore_CC] (site GAGTCCTCTAG) (LTG core: CC, RTG core: CC) | 0.561 |
| GCGGGACGTTGGGTTCTAACCTGTTGCCTAC [GCGGGACCTAG_LTGcore_GT_RTGcore_GT] (site GCGGGACCTAG) (LTG core: GT, RTG core: GT) | 0.163 |
| GAGTCCAGCTGGGTTCTAACCTGTTGCGTAG [GAGTCCACTAC_LTGcore_GC_RTGcore_CT] (site GAGTCCACTAC) (LTG core: GC, RTG core: CT) | 0.0179 |
| GAGCCCACATGGGTTCTAACCTGTTGCCTAG [GAGCCCACTAG_LTGcore_CA_RTGcore_CT] (site GAGCCCACTAG) (LTG core: CA, RTG core: CT) | 0.304 |
| ATGCTTTTCTGGGTTCTAACCTGTTGCCTAG [ATGCTTTCTAG_LTGcore_TC_RTGcore_CT] (site ATGCTTTCTAG) (LTG core: TC, RTG core: CT) | 0.439 |
| CGGTCCCAGTGGGTTCTAACCTGTTGCCACT [CGGTCCCCTTG_LTGcore_AG_RTGcore_AG] (site CGGTCCCCTTG) (LTG core: AG, RTG core: AG) | 0.258 |
| AGGCCTCGTTGGGTTCTAACCTGTTGCCTAG [AGGCCTCCTAG_LTGcore_GT_RTGcore_CT] (site AGGCCTCCTAG) (LTG core: GT, RTG core: CT) | 0.148 |
